In patent publication US10670605B2, “Cysteine reactive probes and uses thereof” (The Scripps Research Institute, priority 2015, dated 2020):

Key:
Experiment in all cases: Competitive isoTOP-ABPP in situ (fragment-treated cells)
Format in all cases: cell-based
[1] = target: cysteines in MDA-MB-231 and Ramos cells (Homo sapiens, UniProt Q15021)
[2] = target: cysteines in MDA-MB-231 and Ramos cells (Homo sapiens, UniProt Q7Z2W4)
[3] = target: T1, cysteines in MDA-MB-231 and Ramos cells (Homo sapiens, UniProt P11216)
T1 sequence (P11216 1-843): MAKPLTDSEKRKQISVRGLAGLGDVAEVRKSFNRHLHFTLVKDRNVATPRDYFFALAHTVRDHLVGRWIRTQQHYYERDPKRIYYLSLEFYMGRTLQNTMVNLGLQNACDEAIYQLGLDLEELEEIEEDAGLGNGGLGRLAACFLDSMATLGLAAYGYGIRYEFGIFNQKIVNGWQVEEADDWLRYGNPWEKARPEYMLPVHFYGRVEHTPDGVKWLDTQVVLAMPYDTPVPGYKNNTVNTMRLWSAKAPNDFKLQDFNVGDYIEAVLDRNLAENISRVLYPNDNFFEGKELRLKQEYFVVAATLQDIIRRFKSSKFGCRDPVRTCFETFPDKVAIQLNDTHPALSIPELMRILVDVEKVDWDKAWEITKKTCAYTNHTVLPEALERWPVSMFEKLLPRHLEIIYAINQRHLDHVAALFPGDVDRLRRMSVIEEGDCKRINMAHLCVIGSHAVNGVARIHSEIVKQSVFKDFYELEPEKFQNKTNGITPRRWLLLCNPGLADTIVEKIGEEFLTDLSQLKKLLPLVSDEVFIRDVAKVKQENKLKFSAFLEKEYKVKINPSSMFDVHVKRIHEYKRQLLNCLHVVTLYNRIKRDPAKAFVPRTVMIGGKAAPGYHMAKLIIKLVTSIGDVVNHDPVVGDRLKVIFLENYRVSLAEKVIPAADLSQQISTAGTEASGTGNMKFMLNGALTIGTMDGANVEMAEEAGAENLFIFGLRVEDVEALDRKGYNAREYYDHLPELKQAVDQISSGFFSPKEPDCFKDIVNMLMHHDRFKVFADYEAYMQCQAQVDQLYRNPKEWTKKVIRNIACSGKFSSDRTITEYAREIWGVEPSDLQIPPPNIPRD

[4] = target: cysteines in MDA-MB-231 and Ramos cells (Homo sapiens, UniProt O00299)
[5] = target: T2, cysteines in MDA-MB-231 and Ramos cells (Homo sapiens, UniProt O95571)
T2 sequence (O95571 8-254): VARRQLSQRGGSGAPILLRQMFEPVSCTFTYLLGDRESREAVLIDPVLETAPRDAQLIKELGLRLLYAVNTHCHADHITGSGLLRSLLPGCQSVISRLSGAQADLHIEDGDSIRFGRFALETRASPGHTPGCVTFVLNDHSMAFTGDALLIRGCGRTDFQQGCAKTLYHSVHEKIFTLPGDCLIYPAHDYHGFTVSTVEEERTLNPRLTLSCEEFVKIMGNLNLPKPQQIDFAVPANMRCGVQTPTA

[6] = target: T3, cysteines in MDA-MB-231 and Ramos cells (Homo sapiens, UniProt Q9UKF6)
T3 sequence (Q9UKF6 1-684): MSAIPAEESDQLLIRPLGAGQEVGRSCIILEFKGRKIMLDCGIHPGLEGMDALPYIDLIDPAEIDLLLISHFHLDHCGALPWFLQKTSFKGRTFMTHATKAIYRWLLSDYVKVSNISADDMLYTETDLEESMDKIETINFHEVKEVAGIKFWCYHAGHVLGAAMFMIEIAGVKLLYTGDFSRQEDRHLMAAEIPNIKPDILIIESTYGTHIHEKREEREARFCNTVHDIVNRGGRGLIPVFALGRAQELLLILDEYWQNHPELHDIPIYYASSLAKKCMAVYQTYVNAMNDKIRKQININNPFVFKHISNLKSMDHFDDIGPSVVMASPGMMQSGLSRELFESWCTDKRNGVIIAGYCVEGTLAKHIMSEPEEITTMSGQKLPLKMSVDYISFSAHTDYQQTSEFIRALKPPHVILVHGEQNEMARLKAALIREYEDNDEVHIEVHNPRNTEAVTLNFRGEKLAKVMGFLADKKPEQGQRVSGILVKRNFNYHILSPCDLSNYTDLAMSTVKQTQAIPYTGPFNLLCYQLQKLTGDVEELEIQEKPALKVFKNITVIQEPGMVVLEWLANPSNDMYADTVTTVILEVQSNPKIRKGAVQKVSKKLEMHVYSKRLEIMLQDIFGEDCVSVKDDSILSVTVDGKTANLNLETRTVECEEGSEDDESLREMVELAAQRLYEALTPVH

[7] = target: T4, cysteines in MDA-MB-231 and Ramos cells (Homo sapiens, UniProt Q5T0N5)
T4 sequence (Q5T0N5 1-605): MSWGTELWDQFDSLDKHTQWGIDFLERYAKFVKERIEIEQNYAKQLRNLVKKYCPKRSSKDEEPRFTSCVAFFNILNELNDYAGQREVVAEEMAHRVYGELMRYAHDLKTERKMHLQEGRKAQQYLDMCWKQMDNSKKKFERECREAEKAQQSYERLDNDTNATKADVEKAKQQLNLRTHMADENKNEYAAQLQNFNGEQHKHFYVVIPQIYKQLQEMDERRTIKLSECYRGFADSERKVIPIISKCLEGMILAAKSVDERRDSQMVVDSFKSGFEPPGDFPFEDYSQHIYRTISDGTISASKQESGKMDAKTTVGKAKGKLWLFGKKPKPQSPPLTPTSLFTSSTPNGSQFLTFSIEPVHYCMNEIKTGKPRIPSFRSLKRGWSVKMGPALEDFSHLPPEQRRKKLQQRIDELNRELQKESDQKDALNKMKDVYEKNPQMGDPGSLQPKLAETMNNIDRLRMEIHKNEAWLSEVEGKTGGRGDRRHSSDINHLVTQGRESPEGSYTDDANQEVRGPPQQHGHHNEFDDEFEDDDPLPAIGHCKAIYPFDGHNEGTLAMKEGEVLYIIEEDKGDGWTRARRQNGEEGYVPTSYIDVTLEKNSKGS

Sequence of cysteines in MDA-MB-231 and Ramos cells (Homo sapiens, UniProt Q7Z2W4) (Q7Z2W4 whole entry): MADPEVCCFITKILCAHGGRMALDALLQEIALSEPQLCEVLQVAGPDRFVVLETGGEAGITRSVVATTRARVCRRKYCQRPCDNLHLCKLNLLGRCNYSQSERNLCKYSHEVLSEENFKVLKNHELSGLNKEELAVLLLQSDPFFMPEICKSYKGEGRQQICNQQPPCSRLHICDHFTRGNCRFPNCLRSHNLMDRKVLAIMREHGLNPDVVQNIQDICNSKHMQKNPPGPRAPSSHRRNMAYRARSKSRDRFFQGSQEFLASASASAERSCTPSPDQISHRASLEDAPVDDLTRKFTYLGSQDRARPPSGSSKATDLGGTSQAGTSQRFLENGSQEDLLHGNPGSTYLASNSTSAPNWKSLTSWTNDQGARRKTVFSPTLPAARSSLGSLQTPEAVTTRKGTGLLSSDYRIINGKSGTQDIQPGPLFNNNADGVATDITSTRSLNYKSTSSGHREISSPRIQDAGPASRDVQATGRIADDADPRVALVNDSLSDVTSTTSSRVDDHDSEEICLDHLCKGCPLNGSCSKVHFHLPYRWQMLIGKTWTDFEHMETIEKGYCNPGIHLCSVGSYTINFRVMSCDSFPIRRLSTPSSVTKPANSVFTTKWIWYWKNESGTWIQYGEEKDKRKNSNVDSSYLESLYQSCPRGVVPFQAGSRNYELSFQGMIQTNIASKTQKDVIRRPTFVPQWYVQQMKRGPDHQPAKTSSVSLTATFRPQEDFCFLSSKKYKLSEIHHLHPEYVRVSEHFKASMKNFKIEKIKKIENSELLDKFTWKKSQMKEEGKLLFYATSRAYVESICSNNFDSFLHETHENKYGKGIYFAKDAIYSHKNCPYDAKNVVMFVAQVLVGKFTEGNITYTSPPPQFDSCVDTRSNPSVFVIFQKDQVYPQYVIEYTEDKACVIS
Sequence of cysteines in MDA-MB-231 and Ramos cells (Homo sapiens, UniProt Q15021) (Q15021 whole entry): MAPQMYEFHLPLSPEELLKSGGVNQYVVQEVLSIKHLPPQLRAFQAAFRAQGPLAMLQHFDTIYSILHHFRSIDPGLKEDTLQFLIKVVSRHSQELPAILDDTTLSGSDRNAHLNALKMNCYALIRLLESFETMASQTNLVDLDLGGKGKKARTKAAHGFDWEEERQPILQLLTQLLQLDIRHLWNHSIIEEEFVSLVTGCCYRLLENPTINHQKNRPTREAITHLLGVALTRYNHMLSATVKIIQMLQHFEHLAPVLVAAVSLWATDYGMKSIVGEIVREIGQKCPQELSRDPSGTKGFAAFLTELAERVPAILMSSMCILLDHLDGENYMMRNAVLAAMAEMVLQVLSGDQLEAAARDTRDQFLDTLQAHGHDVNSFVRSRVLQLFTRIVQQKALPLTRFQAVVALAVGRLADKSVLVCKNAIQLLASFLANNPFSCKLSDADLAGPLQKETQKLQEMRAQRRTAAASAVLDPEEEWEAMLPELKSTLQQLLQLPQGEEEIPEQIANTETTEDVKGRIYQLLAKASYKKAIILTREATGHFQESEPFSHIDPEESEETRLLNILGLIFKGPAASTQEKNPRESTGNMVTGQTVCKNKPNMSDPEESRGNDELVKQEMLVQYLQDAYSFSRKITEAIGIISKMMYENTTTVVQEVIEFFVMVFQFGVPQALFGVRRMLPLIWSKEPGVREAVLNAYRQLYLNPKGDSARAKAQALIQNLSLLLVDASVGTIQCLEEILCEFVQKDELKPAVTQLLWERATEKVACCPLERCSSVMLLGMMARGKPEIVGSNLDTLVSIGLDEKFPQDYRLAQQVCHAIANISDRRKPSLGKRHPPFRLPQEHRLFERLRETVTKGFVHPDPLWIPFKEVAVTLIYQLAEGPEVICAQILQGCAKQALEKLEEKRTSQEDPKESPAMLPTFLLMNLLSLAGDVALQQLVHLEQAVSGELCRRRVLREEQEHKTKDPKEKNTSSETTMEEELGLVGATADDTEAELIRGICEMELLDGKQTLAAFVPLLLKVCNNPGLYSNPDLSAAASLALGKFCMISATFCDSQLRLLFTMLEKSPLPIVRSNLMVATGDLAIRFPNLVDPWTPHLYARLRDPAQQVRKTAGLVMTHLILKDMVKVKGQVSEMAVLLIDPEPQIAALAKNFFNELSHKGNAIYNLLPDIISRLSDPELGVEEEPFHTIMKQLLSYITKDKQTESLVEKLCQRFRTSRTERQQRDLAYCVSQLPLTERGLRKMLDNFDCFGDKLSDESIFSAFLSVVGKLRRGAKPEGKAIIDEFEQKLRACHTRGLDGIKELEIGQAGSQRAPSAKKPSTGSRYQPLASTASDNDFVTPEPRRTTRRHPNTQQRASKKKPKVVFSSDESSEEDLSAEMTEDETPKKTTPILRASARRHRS

Compound	isoTOP-ABPP ratio Q15021_C439 ([1]; 200 μM, insitu, 231)	isoTOP-ABPP ratio Q7Z2W4_C645 ([2]; 200 μM, insitu, 231)	isoTOP-ABPP ratio P11216_C326 ([3]; 200 μM, insitu, 231)	isoTOP-ABPP ratio O00299_C24 ([4]; 200 μM, insitu, 231)	isoTOP-ABPP ratio O95571_C170 ([5]; 200 μM, insitu, 231)	isoTOP-ABPP ratio Q9UKF6_C498 ([6]; 200 μM, insitu, 231)	isoTOP-ABPP ratio Q5T0N5_C69 ([7]; 200 μM, insitu, 231)	other results
COc1ccccc1OCCNC(=O)CCl [compound 28]	0.9	–	–	–	–	–	–	–
Cc1ccc(C=C(C#N)C(=O)NCCN2CCOCC2)cc1 [compound 41]	0.8	0.9	0.7	0.6	1.1	1.0	0.6	–
O=C(CCl)NC(=O)NC12CC3CC(CC(C3)C1)C2 [compound 12]	6.7	3.3	3.9	20.0	6.3	4.1	20.0	–
O=C(CCl)NCCc1c[nH]c2ccccc12 [compound 13]	–	1.3	1.3	–	1.2	–	1.0	isoTOP-ABPP ratio Q7Z2W4_C645 ([2]; 200 μM, insitu, ramos): 0.9; isoTOP-ABPP ratio O00299_C24 ([4]; 200 μM, insitu, ramos): 1.8; isoTOP-ABPP ratio O95571_C170 ([5]; 200 μM, insitu, ramos): 1.9; isoTOP-ABPP ratio Q9UKF6_C498 ([6]; 200 μM, insitu, ramos): 1.4
O=C(CCl)N1CCC(Cc2ccccc2)CC1 [compound 9]	–	–	–	–	–	–	–	isoTOP-ABPP reactivity Q7Z2W4_C645 ZC3HAV1 ([2]; 200 μM, insitu, 231): 3.0; isoTOP-ABPP reactivity P11216_C326 PYGB ([3]; 200 μM, insitu, 231): 2.6; isoTOP-ABPP reactivity Q15021_C439 NCAPD2 ([1]; 200 μM, insitu, 231): 6.1; isoTOP-ABPP reactivity O00299_C24 CLIC1 ([4]; 200 μM, insitu, 231): 3.0; isoTOP-ABPP reactivity O95571_C170 ETHE1 ([5]; 200 μM, insitu, 231): 2.0
COc1ccc(C2CC(c3cccs3)=NN2C(=O)CCl)cc1 (stereo not shown) [compound 4]	–	–	–	–	–	–	–	isoTOP-ABPP reactivity Q7Z2W4_C645 ZC3HAV1 ([2]; 100 μM in situ 231): 4.4; isoTOP-ABPP reactivity P11216_C326 PYGB ([3]; 100 μM in situ 231): 1.7; isoTOP-ABPP reactivity Q15021_C439 NCAPD2 ([1]; 100 μM in situ 231): 2.2; isoTOP-ABPP reactivity O00299_C24 CLIC1 ([4]; 100 μM in situ 231): 20.0; isoTOP-ABPP reactivity O95571_C170 ETHE1 ([5]; 100 μM in situ 231): 2.3; isoTOP-ABPP reactivity Q9UKF6_C498 CPSF3 ([6]; 100 μM in situ 231): 3.5; isoTOP-ABPP reactivity Q5T0N5_C69 FNBP1L ([7]; 100 μM in situ 231): 20.0
O=C(CCl)NC12CC3CC(CC(C3)C1)C2 [compound 21]	0.7	0.9	0.9	0.7	1.7	1.4	0.8	–
O=C(CCl)Nc1cccc2ncccc12 [compound 51]	1.1	1.6	0.8	–	–	–	1.7	–
Cn1cc(S(=O)(=O)N2CCOCC2)cc1C(=O)NC(=O)CCl [compound 11]	–	–	–	–	–	–	–	isoTOP-ABPP ratio Q7Z2W4_C645 ([2]; 100 μM in situ 231): 1.0; isoTOP-ABPP ratio P11216_C326 ([3]; 100 μM in situ 231): 0.8; isoTOP-ABPP ratio Q15021_C439 ([1]; 100 μM in situ 231): 0.9; isoTOP-ABPP ratio O00299_C24 ([4]; 100 μM in situ 231): 2.5; isoTOP-ABPP ratio O95571_C170 ([5]; 100 μM in situ 231): 1.2; isoTOP-ABPP ratio Q9UKF6_C498 ([6]; 100 μM in situ 231): 1.3; isoTOP-ABPP ratio Q5T0N5_C69 ([7]; 100 μM in situ 231): 1.3
C=CC(=O)Nc1cc(F)c(N2CCN(C(=O)OC(C)(C)C)CC2)c(F)c1 [compound 38]	1.1	0.9	1.2	1.0	–	–	1.5	–
CC1CCc2ccccc2N1C(=O)CCl (stereo not shown) [compound 45]	–	4.6	5.3	–	3.1	20.0	5.4	–
COc1ccc2c(c1)CCCN2C(=O)CCl [compound 2]	–	–	–	–	–	–	–	isoTOP-ABPP reactivity O00299_C24 CLIC1 ([4]; 200 μM, insitu, 231): 9.5; isoTOP-ABPP reactivity O95571_C170 ETHE1 ([5]; 200 μM, insitu, 231): 3.8; isoTOP-ABPP reactivity Q9UKF6_C498 CPSF3 ([6]; 200 μM, insitu, 231): 6.2; isoTOP-ABPP reactivity Q5T0N5_C69 FNBP1L ([7]; 200 μM, insitu, 231): 20.0
COc1cc2c(cc1OC)CN(C(=O)CCl)CC2 [compound 8]	–	–	–	–	–	–	–	isoTOP-ABPP reactivity Q7Z2W4_C645 ZC3HAV1 ([2]; 200 μM, insitu, 231): 5.1; isoTOP-ABPP reactivity P11216_C326 PYGB ([3]; 200 μM, insitu, 231): 20.0; isoTOP-ABPP reactivity Q15021_C439 NCAPD2 ([1]; 200 μM, insitu, 231): 0.6; isoTOP-ABPP reactivity O00299_C24 CLIC1 ([4]; 200 μM, insitu, 231): 10.3; isoTOP-ABPP reactivity O95571_C170 ETHE1 ([5]; 200 μM, insitu, 231): 6.8; isoTOP-ABPP reactivity Q9UKF6_C498 CPSF3 ([6]; 200 μM, insitu, 231): 20.0; isoTOP-ABPP reactivity Q5T0N5_C69 FNBP1L ([7]; 200 μM, insitu, 231): 3.6
CC(C)CCOCCNC(=O)CCl [compound 27]	0.6	0.8	0.7	0.7	1.1	1.5	0.6	–
O=C(CCl)N1CCN(S(=O)(=O)c2ccccc2F)CC1 [compound 10]	5.2	3.8	8.6	5.0	9.0	20.0	2.0	isoTOP-ABPP ratio Q9UKF6_C498 ([6]; 200 μM, insitu, ramos): 2.8
O=C(CCl)N1CCN(CC(=O)N2CCOCC2)CC1 [compound 29]	–	–	–	–	–	–	–	isoTOP-ABPP ratio Q7Z2W4_C645 ([2]; 200 μM, insitu, ramos): 1.6; isoTOP-ABPP ratio Q15021_C439 ([1]; 200 μM, insitu, ramos): 1.4; isoTOP-ABPP ratio O00299_C24 ([4]; 200 μM, insitu, ramos): 1.1; isoTOP-ABPP ratio O95571_C170 ([5]; 200 μM, insitu, ramos): 1.5; isoTOP-ABPP ratio Q9UKF6_C498 ([6]; 200 μM, insitu, ramos): 2.3
C=CC(=O)N(Cc1cccnc1)c1cc(C(F)(F)F)cc(C(F)(F)F)c1 [compound 31]	20.0	–	0.5	0.6	–	–	–	–
